Assay results as given in patent publication US20210196635A1, “DRUG-CONTAINING PARTICLE” (TOWA PHARMACEUTICAL CO., LTD., priority 2018, published 2021).

Assay: Average particle diameter (D50) of powder
Format: physicochemical
Conditions: powder as used for coating
Description: The term “an average particle diameter” used herein refers to a particle diameter of 50% cumulative percentage (D50) on volume-based measurement of powder particle, which can be measured on the mass with a commercially available laser diffraction type particle size distribution measuring device and sonic wave vibration type sieving analyzer.

average particle diameter: 3.38 μm
SMILES: C[C@H]1COc2c(N3CCN(C)CC3)c(F)cc3c(=O)c(C(=O)O)cn1c23.C[C@H]1COc2c(N3CCN(C)CC3)c(F)cc3c(=O)c(C(=O)O)cn1c23.O [Compound A, levofloxacin 0.5 hydrate]
